“Also recorded” adds a separate entry of the source.
Assays:
mGPDH = assay: Liver mGPDH activity in isolated mitochondria, normal rats; type: in vivo; details: normal Sprague-Dawley rats, 1 mg/kg/day continuous infusion, subcutaneous osmotic pump
Experimental: (§1) Methods: Normal rats (Sprague-Dawley) were maintained on a standard diet. Compounds 7, 17, 6, TRIAC or T3 were administered by continuous infusion using an osmotic pump (Alzet; subcutaneous implant) at a dose of 1 mg/kg/day. The compounds were dissolved in 0.1N NaOH solution and the pH adjusted to 7.4-8.0. The compounds were brought up to an appropriate volume using PBS and BSA to maintain solubility within the pump. The compounds were chemically stable in the excipient at 37° C. for 7 days. Body weights were measured and the change from the starting body weight was calculated. The 4.5% reported for the vehicle animals represent a 4.5% increase in body weight over the course of the experiment.
(§2) Sections of liver were removed and frozen. Liver triglycerides were analyzed following lipid extraction by the Bligh Dyer method (Bligh and Dyer, Can. J. Med. Sci. 37(8):911-7 (1959), incorporated herein by reference). Total triglycerides were analyzed in the liver extracts by an enzymatic assay (Thermo Electron Corporation). Total lipid was normalized to initial liver weight and triglyceride content was normalized to liver weight mGPDH activity was analyzed in isolated mitochondria using 2-(4-iodophenyl)-3-(4-nitrophenyl)-5-phenyl tetrazolium chloride as the terminal electron acceptor (Gardner R S, Analytical Biochemistry 59:272 (1974)). Commercially available GPDH was used in each assay as a standard (Sigma, St. Louis, Mo.).

[1] = Body weight change, chronic exposure in normal rats; type: in vivo, rats (Sprague-Dawley); details: 1 mg/kg/day continuous infusion; for Body Weight (% change from start): normal Sprague-Dawley rats, subcutaneous osmotic pump, one week; for Effect on body weight, in words: normal rats
Experimental: as §1

liver triglycerides = assay: Liver triglycerides, chronic exposure in normal rats; type: in vivo, rats (Sprague-Dawley); details: 1 mg/kg/day continuous infusion; for Triglycerides (mg/g liver): normal Sprague-Dawley rats, subcutaneous osmotic pump, one week; for Effect on liver (hepatic) triglyceride content, in words: normal rats, systemic administration
Text: The purpose of these studies was to compare the difference in efficacy to clear liver triglyceride content between T3 and various T3 mimetics that are carboxylic acids and T3 mimetics that are phosphonic acids. In one example, T3 and Compounds 7 and 17, which differ only in that for Compound 7, the X moiety of Formula II is —P(O)OH2 and for Compound 17, X is —C(O)OH, were compared. In the same example TRIAC and Compound 6, which differ only in that for Compound 6, X is —P(O)OH2 and for TRIAC, X is —C(O)OH, were compared. Efficacy was measured by analyzing total liver triglycerides.
as §1, §2

hepatic steatosis = assay: Liver steatosis (H&E sections) in ZDF rats; type: in vivo, Zucker diabetic fatty (ZDF) rats; details: oral, CMC suspension
Experimental: Methods: ZDF rats were maintained on a standard diet (5008). Compounds cis-13-1 or 18 were administered orally at the indicated doses using a CMC suspension. Liver steatosis was analyzed visually following H&E staining of paraffin embedded liver sections. TSH was measured using a rodent specific kit (Amersham Biosciences). At the end of the experiment, the left ventricle was cannulated with a high fidelity catheter-tip transducer (Millar) via the right carotid artery. Left ventricle pressure, its first derivative (LV dP/dt), lead I ECG, and heart rate triggered off the ECG waveform, were recorded.

liver TG = details: thyroxine treatment, cited from earlier work

| SMILES | Liver mGPDH activity (% vehicle) (mGPDH) | Body Weight (% change from start) [1] | Effect on body weight, in words [1] | Triglycerides (mg/g liver) (liver triglycerides) | Effect on liver (hepatic) triglyceride content, in words (liver triglycerides) | Effect on body weight, in words ([1]; 1 mg/kg/day) | Effect on body weight, in words ([1]; listed as compound 17, 1 mg/kg/day) | Effect on hepatic steatosis (visual, H&E), in words (hepatic steatosis) | Decrease of liver TG (liver TG; after one week) | Rebound of liver TG (liver TG; by the end of five weeks) |
| --- | --- | --- | --- | --- | --- | --- | --- | --- | --- | --- |
| O=P(O)(O)Cc1cc(I)c(Oc2ccc(O)c(I)c2)c(I)c1 [Compound 6] | 291 ± 37 % vehicle | 8.7 ± 0.8 % change from start | did not decrease body weight | 1.3 ± 0.2 mg/g liver | significant decrease in hepatic triglyceride content |  |  |  |  |  |
| Cc1cc(OCP(=O)(O)O)cc(C)c1Cc1ccc(O)c(C(C)C)c1 [Compound 7] | 399 ± 40 % vehicle | 9.1 ± 1.5 % change from start | did not decrease body weight | 1.3 ± 0.4 mg/g liver | significant decrease in hepatic triglyceride content |  |  |  |  |  |
| Cc1cc(OCC(=O)O)cc(C)c1Cc1ccc(O)c(C(C)C)c1 [Compound 17] | 426 ± 45 % vehicle | −5.4 ± 1.0 % change from start |  | 1.8 ± 0.3 mg/g liver | significant decrease in hepatic triglyceride content | decreased body weight | loss of body weight |  |  |  |
| CC(C)c1cc(Oc2c(Cl)cc(CC(=O)O)cc2Cl)ccc1O [Compound 18] |  |  |  |  |  |  |  | visually decreased hepatic steatosis compared to control |  |  |
| O=C(O)Cc1cc(I)c(Oc2ccc(O)c(I)c2)c(I)c1 [TRIAC] | 384 ± 28 % vehicle | −1.7 ± 0.6 % change from start |  | 1.5 ± 0.4 mg/g liver | significant decrease in hepatic triglyceride content | decreased body weight; also recorded: loss of body weight |  |  |  |  |
| N[C@@H](Cc1cc(I)c(Oc2cc(I)c(O)c(I)c2)c(I)c1)C(=O)O [thyroxine, 3,3′,5,5′-tetraiodothyronine] |  |  |  |  |  |  |  |  | 5 fold | 4 fold |

— patent US10925885B2, “Thyromimetics for the treatment of fatty liver diseases” (Metabasis Therapeutics, Inc., priority 2005, dated 2021)
